Results reported in patent US7037896B1, “Peptide (VIRIP) which inhibits a circulating virus in humans and the use thereof” (priority 1999, dated 2006).

Assays:
[1] = tested on: R5-tropic HIV-1 NL4-3 V3 variants; assay: Infection of P4R5 indicator cells with NL4-3 V3 recombinants, R5-tropic variants; assay type: cell-based; details: 50 ng of p24, luciferase test
Source text: (§1) FIG. 3: The V3 loop of the X4-tropic NL43 clone was exchanged for the corresponding sequences of the HIV-1 isolates shown. Thus, the recombinant viruses are distinguished exclusively in the V3 loop. In the right panel, the observed inhibitors effect (%), the overall charge of the V3 region and the co-receptor-tropism are shown. At the bottom, the consensus sequence (SEQ ID NO: 6) is shown.
(§2) The V3 loop of the X4-tropic NL4-3 clone was replaced by the corresponding region of a number of primary HIV-1 isolates. […] To determine the inhibitory influence of VIRIP on these variants, P4R5 indicator cells were examined. P4R5 cells express both CCR5 and CXCR4 and contain the luciferase gene under the control of HIV-1 LTR. This cell line was infected with the various recombinant viruses (50 ng of p24) in the presence and absence of VIRIP, and the infection was quantified using the luciferase test.

X4-tropic HIV variants = assay: Replication of HIV isolates in human PBMC (RT activity), X4-tropic variants; assay type: cell-based
Method: (§3) FIG. 5: VIRIP inhibits the replication of various HIV isolates with different cell- and co-receptor-tropisms in human PBMC. Prestimulated PBMC were treated with the various HIV-1 isolates (10 ng of p27 antigen) or a chimeric onco-lentivirus (Mu-HIV) in the presence of the VIRIP concentrations shown. Viral replication was determined by measuring the reverse transcriptase activity in the cell culture supernatant.
(§4) The inhibitory effects on R5-tropic forms were lesser. A chimeric onco-lentivirus (Mu-HIV) carrying the MLV envelope protein was not inhibited (FIG. 5, bottom).

R5-tropic 92TH isolate = assay: Dose-dependent inhibition of infection of P4R5 indicator cells, 92TH isolate; assay type: cell-based, HIV-1
Method: (§5) P4R5 indicator cells were infected in the presence of the shown concentrations of VIRIP, and the β-galactosidase activity was measured in the cell extract 2 days after the infection.
(§6) In order to quantify the inhibitory effect of the substance according to the invention more precisely, P4R5 indicator cells were infected with the X4-tropic HIV-1 P59S isolate and the R5-tropic 92TH isolate in the presence of different doses of VIRIP.

dual-tropic HIV variants = assay: Replication of HIV isolates in human PBMC (RT activity), dual-tropic variants; assay type: cell-based
Method: as §3, §4

HIV-1 = details: three days after infection
Method: FIG. 2: Influence of synthetic VIRIP on the infection of CEMx174-SEAP indicator cells (left) and replication in human PBMCs (right). The cells were infected and cultured in the presence of the stated amounts of VIRIP. To determine the viral entry, the activity of the secreted alkaline phosphatase was determined in the culture supernatant of the CEMx174-SEAP cells three days after the infection.

[2] = tested on: chimeric onco-lentivirus (Mu-HIV) carrying the MLV envelope protein; assay: Replication of chimeric onco-lentivirus in human PBMC (RT activity); assay type: cell-based
Method: as §3, §4

blood cells = assay: Cytotoxic effect on the blood cells
[3] = tested on: X4-tropic HIV-1 NL4-3 V3 variants; assay: Infection of P4R5 indicator cells with NL4-3 V3 recombinants, X4-tropic variants; assay type: cell-based
Source text: as §1, §2

R5-tropic forms = assay: Replication of HIV isolates in human PBMC (RT activity), R5-tropic forms; assay type: cell-based; details: compared with X4-tropic and dual-tropic variants
Method: as §3, §4

[4] = tested on: X4-tropic HIV-1 P59S isolate; assay: Dose-dependent inhibition of infection of P4R5 indicator cells, P59S isolate; assay type: cell-based; details: 2 days after infection
Method: as §5, §6

HIV-1 NL43 = assay: Replication of HIV-1 in human PBMCs (reverse transcriptase test in culture supernatant); assay type: cell-based
Method: FIG. 1: Purification of VIRIP. The purification steps are described in the text. (b) Inhibition of the replication of HIV-1 NL43 in human blood lymphocytes by fraction 1–20. The cells were stimulated with PHA for 2 days, infected with virus stocks containing 10 ng of p24, and the reverse transcriptase activity determined in the culture supernatant 9 days after the infection. The result of the infection experiments is shown.
The isolation of VIRIP was effected on the basis of its inhibitory action on the replication of HIV-1 in an assay which measures the replication of HIV-1 in human peripheral blood lymphocytes (PBMCs). Thus, aliquots of each of the individual chromatographic fractions described under Example 1 were freeze-dried and then subjected to the biological assay in amounts of from 10 ml up to 1 l of hemofiltrate equivalent. The respective fractions which gave a positive signal were subjected to further purification.
Human peripheral blood lymphocytes (PBMCs) were obtained from whole blood using density gradient centrifugation in Ficoll. The cells were prestimulated for two days (RPMI medium, 20% FKS, 100 U/ml IL-2, 5 μg/ml phytohemagglutinin [PHA]). Then, the PBMCs were sedimented by centrifugation at 1200 rpm for 5 min, taken up in PHA-free RPMI medium (20% FKS, 100 U/ml IL-2) and seeded in 96-well flat-bottomed plates in a volume of 80 μl in concentrations of about 150,000 cells per well.
On the following day, aliquots of the individual chromatographic steps described under Example 1 were supplied in amounts of from 10 ml up to 1 l of hemofiltrate equivalent. Thus, the freeze-dried chromatographic fractions were taken up in water and pipetted to the PBMCs in various concentrations in a total volume of 10 μl. After 2 hours of incubation at 37° C., the cells were infected by the addition of 10 μl of HIV-1 virus stock containing from 0.1 to 10 ng of p24 antigen. Subsequently, 50 μl of the culture medium was replaced every 2 days by fresh medium which additionally contained the corresponding peptide fractions. The production of HIV particles at different times (after 9, 12 and 18 days) from the infection of the cells was quantified in a reverse transcriptase (RT) test. The RT test measures the activity of reverse transcriptase in a cell-free culture supernatant, which is thus a measure of the production of viral particles and viral replication in the PBMC cultures. Alternatively, the viral production was determined in p24 antigen ELISA.

[5] = tested on: X4/R5-tropic HIV-1 NL4-3 V3 variants; assay: Infection of P4R5 indicator cells with NL4-3 V3 recombinants, X4/R5-tropic variants; assay type: cell-based; details: 50 ng of p24, luciferase test
Source text: as §1, §2

LEAIPMSIPPEVKFNKPFVF [VIRIP, 20-amino-acid fragment (amino acids 353 to 372) of human alpha-1-antitrypsin, isolated from hemofiltrate and also chemically synthesized]
inhibition of R5-tropic variants [1]: inhibited | suppression of replication of X4-tropic HIV variants (X4-tropic HIV variants; 100 μg/ml): at least partially | suppression of replication of X4-tropic HIV variants (X4-tropic HIV variants; 1000 μg/ml): completely | concentrations required for inhibiting the 92TH isolate relative to P59S (R5-tropic 92TH isolate): about twofold higher concentrations | suppression of replication of dual-tropic HIV variants (dual-tropic HIV variants; 100 μg/ml): at least partially | suppression of replication of dual-tropic HIV variants (dual-tropic HIV variants; 1000 μg/ml): completely | inhibition of the HIV-1 infection of CEMx174-SEAP indicator cells (HIV-1): dose-dependent inhibition | inhibition of chimeric onco-lentivirus (Mu-HIV) [2]: not inhibited | cytotoxic effect on the blood cells (blood cells): does not exert any cytotoxic effect | efficiency of inhibition of X4-tropic variants having a strongly positively charged V3 loop as compared with R5-tropic or dual-tropic isolates [3]: inhibited more efficiently | inhibition of X4-tropic variants ([3]; 50 ng of p24, luciferase test): inhibited | inhibitory effects on R5-tropic forms (R5-tropic forms): lesser | concentration inhibiting the HIV-1 P59S isolate by 50% [4]: 40 µg/mL | concentration inhibiting the HIV-1 P59S isolate by 90% [4]: 180 µg/mL | inhibition of the replication of HIV-1 in PBMCs (HIV-1 NL43; listed as VIRIP from hemofiltrate): effectively block | inhibition of the replication of HIV-1 in PBMCs (HIV-1 NL43; listed as VIRIP purified from hemofiltrate): dose-dependent inhibition | inhibition of the replication of HIV-1 in PBMCs (HIV-1 NL43; listed as chemically synthesized VIRIP): dose-dependent inhibition | inhibition of the replication of HIV-1 in PBMCs (HIV-1 NL43; listed as synthetically prepared VIRIP): dose-dependent suppression | inhibition of the replication of HIV-1 in PBMCs (HIV-1 NL43; listed as synthetically prepared peptide): effectively block | inhibition of X4/R5-tropic variants [5]: inhibited
